Assay [1] relates to bacteria. Briefly: Treated, dried seeds placed on LB or PDA plates. It counts as cell-based.
Procedure: (§1) Carrot, Swiss chard, and spinach seeds (1 kg, 5 kg, and 5 kg respectively) were placed into separate Petri dishes. From each of these seeds, 9 samples were taken, each sample weighing 50 grams. […] The liquid of carrot and Swiss chard treatments were streaked on LB media plates, and kept in a 37 degrees Celsius incubator overnight, and inspected for bacterial growth on the following day. The treated seed were dried in 40 C oven for three days, and some seeds were placed on LB or PDA plates.
For assay [2], the system named is bacteria. Briefly: Seed wash liquid streaked on LB media plates, inspected for bacterial growth. The format is cell-based. The conditions noted are these: treated five minutes, 37 C overnight.
Procedure: as §1

Regarding `[Na+].[O-]Cl` [1.2% bleach, Sodium hypochlorite], the “Swiss chard seeds from which bacteria were found” value in assay [1] (Swiss chard seeds on LB plates) is “about 50%”. In assay [1] (carrot seeds, three days after placing on LB plates), the “carrot seeds from which bacteria were found” value is recorded as “about 50%”. Further, the “microbes found from spinach seed” value in assay [1] (spinach seeds on plates) was “both fungal and bacterial microbes were found”. Moreover, in assay [2] (Swiss chard seeds), the “bacteria in wash liquid after Swiss chard seeds were washed” value is on record as “some bacteria”. In assay [2] (carrot seeds), the “bacteria in wash liquid after carrot seeds were washed” value is reported as “some bacteria”.
